In patent publication US20240228491A1, “METHIONINE ADENOSYLTRANSFERASE INHIBITOR, PREPARATION METHOD THEREFOR AND APPLICATION THEREOF” (SCINNOHUB PHARMACEUTICAL CO., LTD., priority 2021, published 2024) one finds IC50 data, which are given here for 49 compounds.

The target in one assay is MAT2a (Homo sapiens (Human), UniProt P31153). Briefly: MAT2a enzymatic activity test (colorimetric assay). It counts as biochemical. The conditions noted are these: OD620, 150 min reaction, read-out: IC50 against MAT2a. As for the experimental part:
The Colorimetric assay method was used to detect the IC50 value of the tested compounds on MAT2a.
The specific steps were as follows: The compounds having the test starling concentration of 1 μM or 10 μM were diluted into 10 concentration points in a 3-fold gradient. 250 nL of the solutions of the compounds to be tested with 10 different concentrations were taken and added into a 384 well plate for later use. 20 μg/mL of MAT2a enzyme solution was prepared with Assay buffer (50 mM Tris, 50 mM KCl, 10 mM MgCl2, 0.05% polyoxyethylene lauryl ether, pH 8.0). 15 μL of the MAT2a enzyme solution at 20 μg/mL was add into the wells of the compounds to be tested at different concentrations; and 15 μL of Assay buffer was added into the negative control well. An incubation was carried out for 15 minutes after shaking for mixing well. A mixed substrate solution (comprising 400 μM ATP and 600 μM L-Methionine) was prepared with Assay buffer. 10 μL of the mixed substrate solution was added to the positive control well, the compound to be tested well, and the negative control well, respectively, and the reaction began, for a reaction time of 150 min. Then, 50 μL of the reaction stop solution (BIOMOL Green™ Reagent Enzo lifesciences, Cargo No. BML-AK111-1000) was added to stop the reaction, followed by being centrifuged at 1000 rpm for 60 s and then being incubated for 15 min. OD620 was read and data were processed.
By using the log value of the concentration as the X-axis and the inhibition % as the Y-axis, the IC50 value of each compound against enzyme activity was obtained through employing the log(inhibitor) vs. response-Variable slope fitting dose-effect curve of the analysis software GraphPad Prism 5.

A further assay relates to HCT116 MTAP-/- cells. Briefly: Activity test of HCT116 MTAP gene homozygous deletion cells (CellTiter-Glo). Format: cell-based. To be noted: Homo sapiens, HCT-116, 120 h incubation, read-out: HCT116 MTAP-/- Cell IC50. The method, then:
On day 1, cell seeding: after digestion of the cells with trypsin, the cells were resuspended to the desired density with the complete medium (RPMI-1640 supplemented with 10% FBS; the brand of FBS is EXCELL, Cat. No. FND500; the brand of RPMI-1640 is ATCC, Cat. No. 30-2001), mixed evenly, and added into the 96-well plate at 100 μL/well with a cell density of 1000-3000 cells per well. The plate was put back to the incubator for the adherent growth of cells. On day 2, the addition of the compounds to be tested: before the addition of the compounds, the cells were starved with serum-free medium for 4 h, then the complete medium containing the corresponding concentration of compounds was added thereto, and the cells were incubated at 37° C., 5% CO2 for 120 h. On day 7, the cell culture plates were taken out from incubator and equilibrated to room temperature. 50 μL of CellTiter-Glo (Promega Company, Cat. No. G7571) reagent was added per well, and the cells were fully lysed by shaking at room temperature for 2 min, and then incubated for another 60 min to detect the fluorescence intensity. Calculation formula:
% Inhibition=100−(signal of the well with the compound to be tested−signal of the well with only medium and free of cells)/(signal of the well with cells but without addition of the compound−signal of the well with only medium and free of cells)×100.
The fitting dose-effect curve of the analysis software GraphPad Prism 5 was used to give IC50 values of the individual compounds against cellular activity.

Chain of MAT2a (P31153 whole entry): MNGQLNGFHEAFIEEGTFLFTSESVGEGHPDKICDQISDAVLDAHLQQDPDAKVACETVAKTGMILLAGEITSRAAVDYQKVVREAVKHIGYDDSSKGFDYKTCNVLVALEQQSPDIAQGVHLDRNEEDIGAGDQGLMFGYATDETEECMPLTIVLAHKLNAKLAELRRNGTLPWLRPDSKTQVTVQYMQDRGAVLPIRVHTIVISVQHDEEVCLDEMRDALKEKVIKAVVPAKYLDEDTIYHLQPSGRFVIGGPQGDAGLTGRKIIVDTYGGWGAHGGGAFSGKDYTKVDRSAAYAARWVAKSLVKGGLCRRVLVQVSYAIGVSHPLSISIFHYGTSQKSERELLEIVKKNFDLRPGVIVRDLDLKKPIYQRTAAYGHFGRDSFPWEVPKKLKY

For the compound `Nc1c(-c2ccc3c(c2)OCO3)c(=O)n(-c2ccc(Br)cc2)c2nc(C(F)(F)F)ccc12` [Example 86], the IC50 at MAT2a is 0.0159 µM.

With `Nc1c(-c2ccccc2)c(=O)n(-c2ccc(Cl)cc2)c2nc(C(F)(F)F)ccc12` [Example 65], the IC50 on MAT2a was found to be 0.0152 µM.

For the compound `CNc1c(-c2ccco2)c(=O)n(-c2ccccc2)c2nc(C(F)(F)F)ccc12` [Example 11], at MAT2a, the IC50 turned out to be 0.0214 µM. On the same count and under the same terms, next, `Nc1c(-c2ccc(=O)n(CC(F)(F)F)c2)c(=O)n(-c2ccc(Cl)cc2)c2nc(C(F)(F)F)ccc12` [Example 57]: 0.0171 µM. Take `COc1ccc(-c2c(N)c3ccc(C(F)(F)F)nc3n(-c3ccc(Br)cc3)c2=O)nc1` [Example 85]: the IC50 on MAT2a came out at 0.0152 µM. The same measure, in the same setting: the figure for `CS(=O)(=O)CCn1cc2cc(-c3c(N)c4ccc(C(F)(F)F)nc4n(-c4ccc(Cl)cc4)c3=O)ccc2n1` [Example 51] is 0.0162 µM. For `Cn1nc2ccc(-c3c(N)c4ccc(C(F)(F)F)nc4n(-c4ccc(Cl)cc4)c3=O)cc2n1` [Example 64], the figures for the IC50 in the assay on HCT116 MTAP-/- cells and at MAT2a were 0.0107 µM and 0.0154 µM, respectively.

As for `Cc1ccc(-n2c(=O)c(-n3cccn3)c(N)c3ccc(C(F)(F)F)nc32)cc1` [Example 81], the IC50 on MAT2a came out at 0.017 µM. Same read-out and setting: next, `Cc1ccc(-n2c(=O)c(-n3cncn3)c(N)c3ccc(C(F)(F)F)nc32)cc1` [Example 82]: 0.016 µM; `Cc1ccc(-n2c(=O)c(-c3ccc4c(c3)OCCO4)c(N)c3ccc(C(F)(F)F)nc32)cc1` [Example 88]: 0.016 µM; `Nc1c(-c2ccc3cncnc3c2)c(=O)n(-c2ccc(Cl)cc2)c2nc(C(F)(F)F)ccc12` [Example 70]: 0.0305 µM. Take `CNc1c(-c2cncs2)c(=O)n(-c2ccccc2)c2nc(C(F)(F)F)ccc12` [Example 29]: the IC50 in the assay on HCT116 MTAP-/- cells worked out at 0.427 µM; on MAT2a it was 0.0252 µM.

As for `Nc1c(-c2ccc(F)cc2)c(=O)n(-c2ccc(Br)cc2)c2nc(C(F)(F)F)ccc12` [Example 84], the IC50 at MAT2a is 0.0282 µM. As for `Cc1cc(-c2c(N)c3ccc(C(F)(F)F)nc3n(-c3ccc(Cl)cc3)c2=O)on1` [Example 16], the IC50 at MAT2a worked out at 0.0419 µM. Consider `COc1ccc(-c2c(N)c3ccc(C(F)(F)F)nc3n(-c3ccc(Br)cc3)c2=O)cc1` [Example 79, 4-amino-1-(4-bromophenyl)-3-(4-methoxyphenyl)-7-(trifluoromethyl)-1,8-naphthyridin-2(1H)-one], for which the IC50 with HCT116 MTAP-/- cells amounted to 0.0109 µM; at MAT2a, 0.018 µM. For `CN(C)CCn1ncc2cc(-c3c(N)c4ccc(C(F)(F)F)nc4n(-c4ccc(Cl)cc4)c3=O)ccc21` [Example 73], the IC50 on MAT2a amounted to 0.0188 µM. As for `Nc1c(-n2ccnc2)c(=O)n(-c2ccc(Cl)cc2)c2nc(C(F)(F)F)ccc12` [Example 35], the IC50 on MAT2a came to 0.0149 µM. `Cn1cnc2ccc(-c3c(N)c4ccc(C(F)(F)F)nc4n(-c4ccc(Br)cc4)c3=O)cc21` [Example 80]: the IC50 is 0.0131 µM in the assay with HCT116 MTAP-/- cells and 0.0155 µM at MAT2a. `Cn1cccc1-c1c(N)c2ccc(C(F)(F)F)nc2n(-c2ccc(Cl)cc2)c1=O` [Example 28]: at MAT2a, the IC50 turned out to be 0.0253 µM. On to `Cn1cc(-c2c(N)c3ccc(C(F)(F)F)nc3n(-c3ccc(Cl)c(F)c3)c2=O)ccc1=O` [Example 74], for which the IC50 at MAT2a turned out to be 0.0164 µM. As for `Nc1c(-c2ccc3nn[nH]c3c2)c(=O)n(-c2ccc(Cl)cc2)c2nc(C(F)(F)F)ccc12` [Example 62, 4-amino-3-(1H-benzo[d][1,2,3]triazol-6-yl)-1-(4-chlorophenyl)-7-(trifluoromethyl)-1,8-naphthyridin-2(1H)-one], the IC50 on MAT2a came to 0.0161 µM. On the same count and under the same terms, next, `Cn1ncc2cc(-c3c(N)c4ccc(C(F)(F)F)nc4n(-c4ccc(Cl)cc4)c3=O)ccc21` [Example 66]: 0.016 µM; `Nc1c(-c2ccn3ncnc3c2)c(=O)n(-c2ccc(Cl)cc2)c2nc(C(F)(F)F)ccc12` [Example 60]: 0.017 µM.

Take `Cc1cc(-c2c(N)c3ccc(C(F)(F)F)nc3n(-c3ccc(Cl)cc3)c2=O)ccn1` [Example 75]: the IC50 at MAT2a is 0.0138 µM. On to `Cc1ccc(-n2c(=O)c(-c3ccnc(C)c3)c(N)c3ccc(C(F)(F)F)nc32)cc1` [Example 91], for which the IC50 at MAT2a is 0.018 µM. As to `N#Cc1cc(-c2c(N)c3ccc(C(F)(F)F)nc3n(-c3ccc(Cl)cc3)c2=O)ccn1` [Example 76], the IC50 at MAT2a turned out to be 0.0163 µM. In the case of `Nc1c(-c2cncs2)c(=O)n(-c2ccc(Cl)cc2)c2nc(C(F)(F)F)ccc12` [Example 33], the IC50 at MAT2a is 0.0202 µM. As for `Cc1ccc(-n2c(=O)c(-c3ccc4nn(C)cc4c3)c(N)c3ccc(C(F)(F)F)nc32)cc1` [Example 89], the IC50 on MAT2a turned out to be 0.0165 µM. With `Nc1c(-c2ccnc(C(F)(F)F)c2)c(=O)n(-c2ccc(Cl)cc2)c2nc(C(F)(F)F)ccc12` [Example 77], the IC50 at MAT2a amounted to 0.0139 µM. Consider `Cn1c(N)nc2ccc(-c3c(N)c4ccc(C(F)(F)F)nc4n(-c4ccc(Cl)cc4)c3=O)cc21` [Example 37], for which the IC50 at MAT2a was determined as 0.0202 µM. Consider `N#Cc1ccc(-c2c(N)c3ccc(C(F)(F)F)nc3n(-c3ccc(Cl)cc3)c2=O)cc1` [Example 40], for which, at MAT2a, the IC50 was 0.0263 µM.

As to `Cc1ccc(-n2c(=O)c(-c3ccn4ncnc4c3)c(N)c3ccc(C(F)(F)F)nc32)cc1` [Example 90], the IC50 at MAT2a was found to be 0.0169 µM. The same measure, in the same setting: the figure for `CNc1c(-c2ccoc2)c(=O)n(-c2ccccc2)c2nc(C(F)(F)F)ccc12` [Example 9] is 0.0214 µM; for `Cn1cc2cc(-c3c(N)c4ccc(C(F)(F)F)nc4n(-c4ccc(Br)cc4)c3=O)ccc2n1` [Example 92] it is 0.0174 µM; for `COc1ccc(-c2c(N)c3ccc(C(F)(F)F)nc3n(-c3ccc(Cl)cc3)c2=O)nc1` [Example 61] it is 0.017 µM. Same read-out and setting: next, `COc1ccc(-c2c(N)c3ccc(C(F)(F)F)nc3n(-c3ccc(Br)cc3)c2=O)cn1` [Example 93]: 0.0163 µM; `CNc1c(-c2nccs2)c(=O)n(-c2ccccc2)c2nc(C(F)(F)F)ccc12` [Example 2, 4-(methylamino)-1-phenyl-3-(thiazol-2-yl)-7-(trifluoromethyl)-1,8-naphthyridin-2(1H)-one]: 0.0261 µM. In the case of `Nc1c(-c2ccc3[nH]cnc3c2)c(=O)n(-c2ccc(Cl)cc2)c2nc(C(F)(F)F)ccc12` [Example 50], the IC50 on MAT2a was 0.0172 µM. Same read-out and setting: next, `CNc1c(-c2ncc[nH]2)c(=O)n(-c2ccccc2)c2nc(C(F)(F)F)ccc12` [Example 8, 3-(1H-imidazol-2-yl)-4-(methylamino)-1-phenyl-7-(trifluoromethyl)-1,8-naphthyridin-2(1H)-one]: 0.0087 µM.

Regarding `Cc1ccc(-c2c(N)c3ccc(C(F)(F)F)nc3n(-c3ccc(Cl)cc3)c2=O)o1` [Example 14], the IC50 at MAT2a is 0.0229 µM. With `CN(C)CCn1cc2cc(-c3c(N)c4ccc(C(F)(F)F)nc4n(-c4ccc(Cl)cc4)c3=O)ccc2n1` [Example 72], the IC50 on MAT2a was determined as 0.0165 µM.

Take `Nc1c(-c2ccc3cccnc3c2)c(=O)n(-c2ccc(Cl)cc2)c2nc(C(F)(F)F)ccc12` [Example 18]: the IC50 on MAT2a was 0.0514 µM. In the case of `Nc1c(-c2ccc3ccccc3c2)c(=O)n(-c2ccc(Cl)cc2)c2nc(C(F)(F)F)ccc12` [Example 58], on MAT2a, the IC50 is 0.0174 µM.

Consider `Nc1c(-c2ccn3cncc3c2)c(=O)n(-c2ccc(Cl)cc2)c2nc(C(F)(F)F)ccc12` [Example 71], for which the IC50 at MAT2a turned out to be 0.0185 µM. Still for that read-out and setting: next, `Cn1cc(-c2c(N)c3ccc(C(F)(F)F)nc3n(-c3ccc(Cl)cc3F)c2=O)ccc1=O` [Example 78]: 0.014 µM; `CNc1c(-c2cncs2)c(=O)n(-c2ccc(Cl)cc2)c2nc(C(F)(F)F)ccc12` [Example 12]: 0.0258 µM.

With `CNc1c(-c2cccs2)c(=O)n(-c2ccccc2)c2nc(C(F)(F)F)ccc12` [Example 10], the IC50 at MAT2a is 0.0209 µM. Still for that read-out and setting: next, `Nc1c(-c2ccc3nncn3c2)c(=O)n(-c2ccc(Cl)cc2)c2nc(C(F)(F)F)ccc12` [Example 32]: 0.0149 µM. On to `Nc1c(-c2cc3nccnc3cn2)c(=O)n(-c2ccc(Cl)cc2)c2nc(C(F)(F)F)ccc12` [Example 59], for which the IC50 at MAT2a stood at 0.0254 µM.
